Measurements published in ChEMBL document CHEMBL3739278, “Synthesis and evaluation of novel N-3-benzimidazolephenylbisamide derivatives for antiproliferative and Hedgehog pathway inhibitory activity” (Medchemcomm, 2015).

Tests used:
[1] = Antiproliferative activity against human MGC803 cells assessed as cell growth inhibition after 48 hrs by MTT assay; assay type: functional, cell-based; details: MGC-803, 48 h
[2] = Antiproliferative activity against human SW620 cells assessed as cell growth inhibition after 48 hrs by MTT assay; assay type: functional, cell-based; details: SW-620, 48 h
[3] = Antiproliferative activity against human […] cells assessed as cell growth inhibition after 48 hrs by MTT assay; assay type: functional, cell-based
[4] = target: Sonic hedgehog protein (Mus musculus, UniProt Q62226); experiment: Inhibition of hedgehog signalling in mouse NIH3T3-Gli-luc cells after 48 hrs by dual luciferase reporter assay; assay type: cell-based
Chain of Sonic hedgehog protein (Q62226 25-198 limits assumed): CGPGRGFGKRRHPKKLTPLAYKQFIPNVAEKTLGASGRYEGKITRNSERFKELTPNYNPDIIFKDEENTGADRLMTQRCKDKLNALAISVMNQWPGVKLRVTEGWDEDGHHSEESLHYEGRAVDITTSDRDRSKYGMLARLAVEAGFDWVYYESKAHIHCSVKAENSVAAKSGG

[5] = target: Protein smoothened (Homo sapiens, UniProt Q99835); experiment: Displacement of boron-dipyrromethene-cyclopamine from human smoothened receptor expressed in HEK293 cells incubated for 4 hrs by hSMO-BC binding assay; assay type: cell-based
Chain of Protein smoothened (Q99835 whole entry): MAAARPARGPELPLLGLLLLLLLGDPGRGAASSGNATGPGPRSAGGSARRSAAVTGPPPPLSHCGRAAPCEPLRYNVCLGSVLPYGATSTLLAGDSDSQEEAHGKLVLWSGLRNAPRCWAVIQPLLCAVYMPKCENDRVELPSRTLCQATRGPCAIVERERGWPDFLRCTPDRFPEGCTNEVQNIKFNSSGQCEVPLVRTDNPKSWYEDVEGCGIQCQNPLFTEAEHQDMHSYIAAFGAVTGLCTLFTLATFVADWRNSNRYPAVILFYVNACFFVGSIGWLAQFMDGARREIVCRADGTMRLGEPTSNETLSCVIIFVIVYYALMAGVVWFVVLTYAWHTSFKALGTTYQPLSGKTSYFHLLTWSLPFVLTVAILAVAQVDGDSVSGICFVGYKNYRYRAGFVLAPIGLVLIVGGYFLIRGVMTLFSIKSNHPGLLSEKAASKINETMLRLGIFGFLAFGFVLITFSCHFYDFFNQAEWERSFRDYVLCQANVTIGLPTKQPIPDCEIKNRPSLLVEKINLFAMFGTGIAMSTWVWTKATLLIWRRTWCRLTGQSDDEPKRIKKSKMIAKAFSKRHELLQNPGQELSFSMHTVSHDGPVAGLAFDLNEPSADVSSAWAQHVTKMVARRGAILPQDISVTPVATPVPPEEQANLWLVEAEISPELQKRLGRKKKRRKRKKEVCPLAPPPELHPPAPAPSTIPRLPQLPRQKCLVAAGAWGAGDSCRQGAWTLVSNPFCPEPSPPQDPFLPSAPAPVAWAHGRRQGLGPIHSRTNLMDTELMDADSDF

[6] = tested on: HT-29; experiment: Antiproliferative activity against human HT-29 cells assessed as cell growth inhibition after 48 hrs by MTT assay; assay type: functional, cell-based; details: HT-29, 48 h

SMILES | IC50 [1] [µM] | IC50 [2] [µM] | IC50 [3] [µM] | IC50 [4] [µM] | IC50 [5] [µM] | IC50 [6] [µM]
COc1cc(C(=O)NC(=S)Nc2cccc(NC(=O)c3ccccc3)c2)cc(OC)c1OC | 8.62 | 21.2 | 13.8 | 0.65 | 0.281 | 6.61
Cc1ccc(NC(=O)NC(=O)c2ccc(OCc3ccccc3F)cc2)cc1-c1nc2ccccc2[nH]1 | 2.52 | 4.11 | 1.83 |  |  | 0.76
Cc1ccc(NC(=O)NC(=O)c2ccc(OCc3cccc(F)c3)cc2)cc1-c1nc2ccccc2[nH]1 | 44.8 | 39.6 | 53 |  |  | 38.2
Cc1ccc(NC(=O)NC(=O)c2ccc(OCc3ccccc3)cc2)cc1-c1nc2ccccc2[nH]1 | 39.4 | 30.1 | 35.1 |  |  | 16.4
Cc1ccc(NC(=O)NC(=O)c2ccc(OCc3ccc(C(F)(F)F)cc3)cc2)cc1-c1nc2ccccc2[nH]1 | 14.9 | 15.3 | 16.8 |  |  | 7.83
Cc1ccc(NC(=S)NC(=O)c2ccc(OCc3ccc(C(F)(F)F)cc3)cc2)cc1-c1nc2ccccc2[nH]1 | 6.5 | 72.4 | 10.2 |  |  | 17.6
Cc1ccc(COc2ccc(C(=O)NC(=S)Nc3ccc(C)c(-c4nc5ccccc5[nH]4)c3)cc2)cc1 | 4.98 | 60.9 | 11.3 |  |  | 14.2
Cc1ccc(NC(=S)NC(=O)c2ccc(OCc3ccccc3Cl)cc2)cc1-c1nc2ccccc2[nH]1 | 45 | 57.1 | 51.4 |  |  | 23.7
Cc1ccc(COc2ccc(C(=O)NC(=O)Nc3ccc(C)c(-c4nc5ccccc5[nH]4)c3)cc2)cc1 | 4.25 | 26 | 6.36 |  |  | 5.11
Cc1ccc(NC(=S)NC(=O)c2ccc(OCc3cccc(Cl)c3)cc2)cc1-c1nc2ccccc2[nH]1 | 51.3 | > 100 | 43.3 |  |  | 35.3
Cc1ccc(NC(=S)NC(=O)c2ccc(OCc3ccccc3F)cc2)cc1-c1nc2ccccc2[nH]1 | 3.07 | 6.44 | 2.42 | 0.158 |  | 1.87
O=C(NC(=O)c1ccc(OCc2ccc(F)cc2)cc1)Nc1ccc(Cl)c(-c2nc3ccccc3[nH]2)c1 | 0.061 | 33.6 | 0.35 | 0.032 | 0.042 | 0.73
O=C(NC(=S)Nc1ccc(Cl)c(-c2nc3ccccc3[nH]2)c1)c1ccc(OCc2ccc(Cl)c(Cl)c2)cc1 | 5.17 | 24.9 | 4.6 |  |  | 4.93
Cc1ccc(NC(=O)NC(=O)c2ccc(OCc3ccccc3Cl)cc2)cc1-c1nc2ccccc2[nH]1 | 19.5 | 35.7 | 21.5 |  |  | 9.01
Cc1ccc(NC(=O)NC(=O)c2ccc(OCc3cccc(Cl)c3)cc2)cc1-c1nc2ccccc2[nH]1 | 20.8 | 16 | 28 |  |  | 15.4
Cc1ccc(NC(=S)NC(=O)c2ccc(OCc3ccc(Cl)c(Cl)c3)cc2)cc1-c1nc2ccccc2[nH]1 | 6.39 | 30.7 | 8.41 |  |  | 6.27

SMILES | IC50 [1] [µM] | IC50 [2] [µM] | IC50 [3] [µM] | IC50 [4] [µM] | IC50 [5] [µM] | IC50 [6] [µM]
Cc1ccc(NC(=S)NC(=O)c2ccc(OCc3ccc(Cl)cc3Cl)cc2)cc1-c1nc2ccccc2[nH]1 | 3.45 | 57.2 | 5.3 |  |  | 11.6
Cc1ccc(COc2ccc(C(=O)NC(=O)Nc3ccc(Cl)c(-c4nc5ccccc5[nH]4)c3)cc2)cc1 | 3.86 | 23.2 | 3.19 |  |  | 2.95
Cc1ccc(NC(=O)NC(=O)c2ccc(OCc3ccc(Cl)cc3Cl)cc2)cc1-c1nc2ccccc2[nH]1 | 2.74 | 12.2 | 2.55 |  |  | 2.62
Cc1ccc(NC(=S)NC(=O)c2ccc(OCc3ccc(F)cc3)cc2)cc1-c1nc2ccccc2[nH]1 | 2.81 | 40.5 | 4.22 |  |  | 1.91
Cc1ccc(NC(=S)NC(=O)c2ccc(OCc3cccc(Cl)c3Cl)cc2)cc1-c1nc2ccccc2[nH]1 | > 100 | > 100 | > 100 |  |  | 63.7
Cc1ccc(NC(=S)NC(=O)c2ccc(OCc3cccc(C(F)(F)F)c3)cc2)cc1-c1nc2ccccc2[nH]1 | 5.21 | 15.4 | 6.05 |  |  | 8.2
Cc1ccc(NC(=O)NC(=O)c2ccc(OCc3ccc(Cl)c(Cl)c3)cc2)cc1-c1nc2ccccc2[nH]1 | 6.08 | 6.1 | 5.82 |  |  | 1.03
O=C(NC(=O)c1ccc(OCc2ccccc2F)cc1)Nc1ccc(Cl)c(-c2nc3ccccc3[nH]2)c1 | 0.12 | 2.93 | 0.87 | 0.025 | 0.019 | 0.59
Cc1ccc(NC(=S)NC(=O)c2ccc(OCc3ccccc3)cc2)cc1-c1nc2ccccc2[nH]1 | 60.7 | 67.1 | 57.8 |  |  | 28.8
Cc1ccc(NC(=O)NC(=O)c2ccc(OCc3ccc(F)cc3)cc2)cc1-c1nc2ccccc2[nH]1 | 0.16 | 35.1 | 0.24 | 0.037 |  | 0.98
Cc1ccc(NC(=O)NC(=O)c2ccc(OCc3cccc(Cl)c3Cl)cc2)cc1-c1nc2ccccc2[nH]1 | > 100 | 42.1 | 87 |  |  | 48.5
O=C(NC(=S)Nc1ccc(Cl)c(-c2nc3ccccc3[nH]2)c1)c1ccc(OCc2ccc(C(F)(F)F)cc2)cc1 | 5.33 | 63.9 | 7.83 |  |  | 12.9
Cc1ccc(NC(=O)NC(=O)c2ccc(OCc3cccc(C(F)(F)F)c3)cc2)cc1-c1nc2ccccc2[nH]1 | 13.1 | 9.64 | 9.6 |  |  | 3.52
Cc1ccc(NC(=S)NC(=O)c2ccc(OCc3cccc(F)c3)cc2)cc1-c1nc2ccccc2[nH]1 | > 100 | > 100 | 86.8 |  |  | 55.3
O=C(NC(=S)Nc1ccc(Cl)c(-c2nc3ccccc3[nH]2)c1)c1ccc(OCc2ccc(Cl)cc2Cl)cc1 | 3.03 | 50.2 | 3.75 |  |  | 6.08
CS(=O)(=O)c1ccc(C(=O)Nc2ccc(Cl)c(-c3ccccn3)c2)c(Cl)c1 [VISMODEGIB] | 2.39 | 10.9 | 2.88 | 0.013 |  | 1.08
